Patent publication US12357603B2, “Acyl sulfonamides for treating cancer” (Bayer Aktiengesellschaft, priority 2019, dated 2025)
Where two headings read alike, the source gives them in different places.

Tests used:
ZR-75-1 cells = test: Proliferation assay ZR-75-1 (Alamar Blue, 144 h); format: cell-based; conditions: arithmetic mean, read-out: ZR75-1 proliferation assay, EC50 [M] (arithmetic mean)
How it was run: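 Alamar Blue fluorescence (590 nm, 2 h reagent step) measured viability after 144 h compound exposure at 37 °C, 5% CO2. Compounds spanned 2.0×10E-5 to 2.0×10E-9 M in 9 dilutions at 0.2% DMSO, in triplicate, added 24 h after plating 3000 cells/well in RPMI 1640 plus 2.5% FBS.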

[1] = system: ESR1 transcription (luciferase signal in MVLN cells); test: Repression of ESR1 transcription, luciferase reporter in MVLN cells; format: cell-based; conditions: inhibition of luciferase signal in MVLN cells, arithmetic mean
How it was run: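 Luminescence from an ER-driven Vitellogenin A2 element–luciferase reporter was measured after 24 h of treatment of MVLN cells, in duplicate wells. Alamar Blue (2 h, 530/590 nm) served as a cell-density control.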

MDA-MB-436 cells = test: Proliferation assay MDA-MB-436, negative control cell line (Alamar Blue, 144 h); format: cell-based; conditions: arithmetic mean
How it was run: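 Viability read as Alamar Blue fluorescence (590 nm, 2 h) after 144 h compound exposure at 37 °C, 5% CO2. Cells seeded at 3000 per well in 2.5% FBS DMEM/Ham's F12, dosed a day later over 2.0×10E-9–2.0×10E-5 M in 9 steps with 0.2% DMSO, in triplicate.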

[2] = biological target: Recombinant human GST-tagged Kat6b protein (431-end); test: Kat6b activity assay (TR-FRET, acetylation of biotinylated Histone-H4-derived peptide); format: biochemical; conditions: 30 mins at 22° C., read-out: KAT6B activity assay IC50 [mol/l] (arithmetic mean)
Description: Kat6b inhibitory activities of the compounds described in the present invention were quantified using a Fluorescence Resonance Energy Transfer (TR-FRET) assay which measures acetylation of a synthetic, biotinylated Histone-H4-derived peptide by the enzyme.
In this case 50 nl DMSO were used instead of compounds. […] IC50 values were determined by regression analysis based on a 4 parameter equation (minimum, maximum, ICM, Hill; Y=Max+(Min−Max)/(1+(X/ICso) Hill) using the Screener Software (Genedata).

[3] = biological target: Recombinant human His-tagged Kat6a protein (amino acids 194-810) (Homo sapiens (Human), UniProt Q92794); test: Kat6a activity assay (TR-FRET, acetylation of biotinylated Histone-H4-derived peptide); format: biochemical; conditions: 60 mins at 22° C., read-out: KAT6A-DPF/HAT domain IC50 [mol/l] (arithmetic mean)
How it was run: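 TR-FRET read-out of H4 K8 acetylation, using anti-acetyl-K8 antibody and streptavidin acceptor, after anacardic acid stop; IC50 from four-parameter regression normalized to DMSO. Reaction: recombinant human Kat6a aa 194-810 (insect-cell derived), 220 nM H4 1-24 peptide, 600 nM acetyl-CoA, pH 8, 22 °C, 60 min, compounds 0.01-20 μM.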

[4] = Homo sapiens, MDA-MB-436, 144 h

Recombinant human His-tagged Kat6a protein (amino acids 194-810), sequence (Q92794 194-810): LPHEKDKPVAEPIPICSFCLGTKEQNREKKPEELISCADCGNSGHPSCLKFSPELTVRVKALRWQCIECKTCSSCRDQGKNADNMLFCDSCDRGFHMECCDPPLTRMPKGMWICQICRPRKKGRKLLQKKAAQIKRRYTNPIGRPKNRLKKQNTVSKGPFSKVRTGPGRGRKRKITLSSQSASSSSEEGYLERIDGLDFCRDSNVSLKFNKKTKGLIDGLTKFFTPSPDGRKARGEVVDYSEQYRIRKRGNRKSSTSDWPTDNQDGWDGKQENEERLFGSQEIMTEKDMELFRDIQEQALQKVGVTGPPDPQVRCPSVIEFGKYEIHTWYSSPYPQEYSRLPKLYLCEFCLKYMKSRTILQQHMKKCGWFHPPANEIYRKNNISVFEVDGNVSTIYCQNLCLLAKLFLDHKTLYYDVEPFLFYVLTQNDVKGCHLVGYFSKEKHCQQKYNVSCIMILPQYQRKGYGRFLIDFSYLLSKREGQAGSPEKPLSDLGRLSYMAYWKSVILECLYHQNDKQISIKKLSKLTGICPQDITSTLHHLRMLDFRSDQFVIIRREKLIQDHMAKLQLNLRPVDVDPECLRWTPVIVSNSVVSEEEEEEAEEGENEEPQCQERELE

IC50 ([1]; Homo sapiens, MVLN) [nM]	EC50 (MDA-MB-436 cells; [4]) [nM]	IC50 [2] [nM]	IC50 [3] [nM]	IC50 [1] [nM]	EC50 (MDA-MB-436 cells) [nM]	SMILES	EC50 (ZR-75-1 cells; Homo sapiens, ZR-75-1, 144 h) [M]	EC50 (ZR-75-1 cells) [M]
5000	–	235	112	–	–	CN(C)c1ccc2cc(C(=O)NS(=O)(=O)c3ccc(-c4ccccc4)cc3)oc2c1 [Example 15, N-([1,1′-biphenyl]-4-sulfonyl)-6-(dimethylamino)-1-benzofuran-2-carboxamide]	4.28e-06	–
126	> 20000	50.5	66.3	–	–	CN(C)c1ccc2cc(C(=O)NS(=O)(=O)c3ccccc3-c3cccc(Cl)c3)oc2c1 [Example 16, N-(3′-Chloro[1,1′-biphenyl]-2-sulfonyl)-6-(dimethylamino)-1-benzofuran-2-carboxamide]	1.55e-07	–
148	> 20000	64.5	72.4	–	–	Cc1ccccc1-c1ccccc1S(=O)(=O)NC(=O)c1cc2ccc(N(C)C)cc2o1 [Example 17, 6-(Dimethylamino)-N-(2′-methyl[1,1′-biphenyl]-2-sulfonyl)-1-benzofuran-2-carboxamide]	3.87e-08	–
343	> 20000	88.4	104	–	–	CN(C)c1ccc2cc(C(=O)N[S@SP1](=O)(=O)c3cccc4ccccc34)oc2c1 [Example 20, 6-(Dimethylamino)-N-(naphthalene-1-sulfonyl)-1-benzofuran-2-carboxamide]	2.5e-07	–
–	–	26.7	23.4	48.5	15300	Cc1ccc2cccc(S(=O)(=O)NC(=O)c3cc4ccc(N(C)C)cc4o3)c2n1 [Example 21, 6-(Dimethylamino)-N-(2-methylquinoline-8-sulfonyl)-1-benzofuran-2-carboxamide]	–	4.21e-08
214	> 20000	200	219	–	–	CN(C)c1ccc2cc(C(=O)NS(=O)(=O)c3ccccc3Cl)oc2c1 [Example 22, N-(2-Chlorobenzene-1-sulfonyl)-6-(dimethylamino)-1-benzofuran-2-carboxamide]	2.02e-07	–
181	> 20000	49	31	–	–	Cc1ccc(S(=O)(=O)NC(=O)c2cc3ccc(N(C)C)cc3o2)c(-c2ccccc2)c1 [Example 24, 6-(Dimethylamino)-N-(5-methyl[1,1′-biphenyl]-2-sulfonyl)-1-benzofuran-2-carboxamide]	1.33e-07	–
–	> 20000	59.1	53	–	–	CN(C)c1ccc2cc(C(=O)NS(=O)(=O)c3ccccc3OC(F)(F)F)oc2c1 [Example 31, 6-(Dimethylamino)-N-[2-(trifluoromethoxy)benzene-1-sulfonyl]-1-benzofuran-2-carboxamide]	8.14e-08	–
–	> 20000	423	224	–	–	Cc1ccccc1S(=O)(=O)NC(=O)c1cc2ccc(N(C)C)cc2o1 [Example 32, 6-(Dimethylamino)-N-(2-methylbenzene-1-sulfonyl)-1-benzofuran-2-carboxamide]	3.78e-07	–
–	> 20000	> 20000	2720	–	–	CN(C)c1ccc2cc(C(=O)NS(=O)(=O)c3ccccc3C#N)oc2c1 [Example 33, N-(2-Cyanobenzene-1-sulfonyl)-6-(dimethylamino)-1-benzofuran-2-carboxamide]	6.26e-06	–
–	> 20000	504	417	–	–	CN(C)c1ccc2cc(C(=O)NS(=O)(=O)c3ccccc3F)oc2c1 [Example 34, 6-(Dimethylamino)-N-(2-fluorobenzene-1-sulfonyl)-1-benzofuran-2-carboxamide]	5.78e-07	–
785	> 20000	450	310	–	–	CN(C)c1ccc2cc(C(=O)NS(=O)(=O)c3ccccc3-c3ccccc3)sc2c1 [Example 48, N-([1,1′-Biphenyl]-2-sulfonyl)-6-(dimethylamino)-1-benzothiophene-2-carboxamide]	–	–
209	–	55.4	48.8	–	–	Cc1cc(Cl)c2cccc(S(=O)(=O)NC(=O)c3cc4ccc(N(C)C)cc4o3)c2n1 [Example 83, N-(4-Chloro-2-methylquinoline-8-sulfonyl)-6-(dimethylamino)-1-benzofuran-2-carboxamide]	1.13e-06	–
62.5	> 20000	56.2	71.2	–	–	COc1cc(C)ccc1S(=O)(=O)NC(=O)c1cc2ccc(N(C)C)cc2o1 [Example 127, 6-(Dimethylamino)-N-(2-methoxy-4-methylbenzene-1-sulfonyl)-1-benzofuran-2-carboxamide]	–	–
29.1	–	24	7.91	–	–	CC(C)c1ccc(OCC2CC2)c(S(=O)(=O)NC(=O)c2cc3ccc(N(C)C)cc3o2)c1 [Example 177, N-[2-(cyclopropylmethoxy)-5-isopropyl-phenyl]sulfonyl-6-(dimethylamino)benzofuran-2-carboxamide]	6.97e-08	–

More lines, now with the values behind:

SMILES	IC50 ([1]; Homo sapiens, MVLN) [nM]	EC50 (MDA-MB-436 cells; [4]) [nM]	IC50 [2] [nM]	IC50 [3] [nM]	IC50 [1] [nM]	EC50 (MDA-MB-436 cells) [nM]	EC50 (ZR-75-1 cells; Homo sapiens, ZR-75-1, 144 h) [M]	EC50 (ZR-75-1 cells) [M]
CCN(C)c1ccc2cc(C(=O)NS(=O)(=O)c3ccccc3-c3ccccc3)oc2c1 [Example 1, 6-[Ethyl(methyl)amino]-N-(2-phenylphenyl)sulfonyl-benzofuran-2-carboxamide]	1840	> 20000	836	599	–	–	8.93e-07	–
CCN(C)c1ccc2cc(C(=O)NS(=O)(=O)c3ccccc3)oc2c1 [Example 2, N-(Benzenesulfonyl)-6-[ethyl(methyl)amino]benzofuran-2-carboxamide]	3500	> 20000	5700	4800	–	–	1.08e-05	–
CCN(C)c1ccc2cc(C(=O)NS(=O)(=O)c3ccccc3Cl)oc2c1 [Example 4, N-(2-Chlorophenyl)sulfonyl-6-[ethyl(methyl)amino]benzofuran-2-carboxamide]	2570	> 20000	1410	2700	–	–	3.25e-06	–
CCOc1ccccc1S(=O)(=O)NC(=O)c1cc2ccc(N(C)CC)cc2o1 [Example 5, N-(2-Ethoxyphenyl)sulfonyl-6-[ethyl(methyl)amino]benzofuran-2-carboxamide]	520	> 20000	495	1100	–	–	8.76e-07	–
CCOc1ccccc1S(=O)(=O)NC(=O)c1cc2ccc(N(C)c3ccccc3)cc2o1 [Example 6, N-(2-Ethoxyphenyl)sulfonyl-6-(N-methylanilino)benzofuran-2-carboxamide]	> 20000	> 20000	4280	1830	–	–	> 2e-05	–
CN(c1ccccc1)c1ccc2cc(C(=O)NS(=O)(=O)c3ccccc3)oc2c1 [Example 7]	> 20000	> 20000	> 20000	9600	–	–	> 2e-05	–
CN(c1ccccc1)c1ccc2cc(C(=O)NS(=O)(=O)c3ccccc3Cl)oc2c1 [Example 8, N-(2-Chlorophenyl)sulfonyl-6-(N-methylanilino)benzofuran-2-carboxamide]	> 20000	> 20000	4400	5030	–	–	> 2e-05	–
CNc1ccc2cc(C(=O)NS(=O)(=O)c3ccccc3-c3ccccc3)oc2c1 [Example 11, 6-(Methylamino)-N-(2-phenylphenyl)sulfonyl-benzofuran-2-carboxamide]	1930	> 20000	205	123	–	–	2.84e-07	–
CN(C)c1cc(F)c2cc(C(=O)NS(=O)(=O)c3ccccc3-c3ccccc3)oc2c1 [Example 12, N-([1,1′-Biphenyl]-2-sulfonyl)-6-(dimethylamino)-4-fluoro-1-benzofuran-2-carboxamide]	61.7	–	18.2	13.3	–	–	5.72e-08	–
CCOc1ccccc1S(=O)(=O)NC(=O)c1cc2c(F)cc(N(C)C)cc2o1 [Example 13, 6-(Dimethylamino)-N-(2-ethoxybenzene-1-sulfonyl)-4-fluoro-1-benzofuran-2-carboxamide]	16.7	> 20000	11.6	12.5	–	–	2.28e-08	–
